Test system: human endothelial cells
Experiment: In vitro angiogenesis assay (Angiogenesis Assay Kit, CD31 staining, AngioSys image analysis)
Type: cell-based
Settings: 11 days
Description: To evaluate the angiogenic growth factors secreted from fibroblasts in response to 45S5 Bioglass®, a commercial angiogenesis assay (Angiogenesis Assay Kit; TCS CellWorks Ltd) was used (Donovan D et al. Comparison of three in vitro human ‘angiogenesis’ assays with capillaries formed in vivo. Angiogenesis. 2001;4:113-121; Drinkwater S L et al Effect of venous ulcer exudates on angiogenesis in vitro. Br J Surg. 2002;89:709-713; Sengupta S et al. Thymidine phosphorylase induces angiogenesis in vivo and in vitro: an evaluation of possible mechanisms. Br J Pharmacol. 2003;139:219-231). The assay was performed according to the manufacturer's instructions.
In brief, on the day of delivery from the supplier, the medium in the culture plate was replaced with optimised medium (TCS CellWorks Ltd; supplied with the kit) alone (OM); OM:conditioned medium (medium collected from human colonic fibroblasts (CCD-18co) cultured on 0 g/cm^2 or 0.3125 mg/cm^2 45S5 Bioglass® for 72 hours) at 1:1 v/v; OM containing 2 ng/ml VEGF (positive control); or OM containing 20 μM suramin (negative control). Each treatment condition was repeated in quadruplicate. The culture medium was removed on days 4, 7 and 9 of the experiment and replaced with fresh pre-equilibrated (37° C. and 5% CO2) optimised medium plus each treatment. After 11 days, the endothelial cells were stained for CD31 (TCS CellWorks Ltd) using indirect immunocytochemistry as described in the manufacturer's instructions and allowed to air-dry. Each well was divided into quadrants on the underside of the plate. Photomicrographs of each quadrant were recorded with a Nikon Eclipse TE2000-S inverted photomicroscope fitted with a digital camera using a 4× objective lens. Image analysis software (AngioSys, Foster Findlay Associates, Newcastle Upon Tyne, UK) was used for automated scoring of the assay, providing quantitative measurements of endothelial tubule development (total vessel number, total tubule length and number of junctions), as previously described (Drinkwater S L et al Effect of venous ulcer exudates on angiogenesis in vitro. Br J Surg. 2002;89:709-713; Sengupta S et al. Thymidine phosphorylase induces angiogenesis in vivo and in vitro: an evaluation of possible mechanisms. Br J Pharmacol. 2003; 139:219-231).

[1] = 20 μM suramin, vs control endothelial cells

`Cc1ccc(C(=O)Nc2ccc(S(=O)(=O)O)c3cc(S(=O)(=O)O)cc(S(=O)(=O)O)c23)cc1NC(=O)c1cccc(NC(=O)Nc2cccc(C(=O)Nc3cc(C(=O)Nc4ccc(S(=O)(=O)O)c5cc(S(=O)(=O)O)cc(S(=O)(=O)O)c45)ccc3C)c2)c1` [suramin] was tested, and the “number of endothelial tubules” value [1] was “reduced”, the “number of tubule junctions” value [1] was “reduced” and the total tubule length [1] was “reduced”.

In the case of VEGF, the “number of anastomosed endothelial tubules (micrographs)” value (2 ng/ml VEGF, vs optimised medium alone) is reported as “visible increase” and the “endothelial tubule development (tubules, tubule length, junctions)” value (2 ng/ml VEGF, positive control) is reported as “Significant increases”.
